Where two headings read alike, the source gives them in different places.
What was measured:
Rho kinase [1] = settings: according to Non-Patent Document 7; read-out: 50% inhibitory concentration (IC50) for Rho kinase; cited from earlier work
Rho kinase [2] = settings: disclosed in Patent Document 3; read-out: 50% inhibitory concentration (IC50) for Rho kinase; cited from earlier work
cornea = assay: Change of thickness of cornea in human, long-term eyedrop administration test; assay type: in vivo
Experimental: In a long-term administration test of Compound B in a subject having ophthalmologic disease, the influence on the cornea was examined (27-34 examples). In other words, in an group administered an eyedrop consisting of 0.4% Compound B twice a day for 52 weeks, the corneal thickness was measured using pachymeter before starting administration (week 0), 2 weeks after starting administration, 4 weeks after starting administration, and every 4 weeks thereafter. Measurement was performed five times, and the mean value calculated from the five measurements was adopted. In the measuring day, the drop was instilled in the eye at 9:00 and measurement was performed at 11:00. Note that at week 28, week 52, and during the follow-up (7-28 days after the last administration day), measurement was performed twice at 9:00 (at week 28 and week 52, it was done before the instillation) and 11:00. The upper part in FIG. 1 represents the result from the right eye, and the lower part in FIG. 1 represents the result from the left eye. The vertical axis represents changing values (μm) from week 0, and the horizontal axis represents the week for administration. At week 28, week 52, and during the follow-up (f/u), the measurement at 9:00 is represented with (0) and the measurement at 11:00 is represented with (2).

[3] = tested on: rabbit corneal endothelial cell; settings: reported in Patent Document 1; cited from earlier work

CC(N)[C@H]1CC[C@H](C(=O)Nc2ccncc2)CC1 (single isomer, unassigned; (+)) [Compound Y-27632, (+)-trans-4-(1-aminoethyl)-1-(4-pyridylaminocarbonyl)cyclohexane]
IC50 (Rho kinase [1]): 110 nM

CC1CNCCCN1S(=O)(=O)c1cccc2cncc(F)c12 (centres unmarked) [Compound A, 1-(4-fluoro-5-isoquinolinesulfonyl)-2-methyl-1,4-homopiperazine]
IC50 (Rho kinase [2]): 200 nM

C[C@H]1CNCCCN1S(=O)(=O)c1cccc2cncc(F)c12 [Compound B, (S)-(−)-1-(4-fluoro-5-isoquinolinesulfonyl)-2-methyl-1,4-homopiperazine]
thickness of the cornea during the period for administration (cornea; human subjects with ophthalmologic disease, 0.4% eyedrop twice a day for 52 weeks, pachymeter, vs week 0): decreased | thickness of the cornea during the continued administration (cornea; human, 0.4% eyedrop twice a day for 52 weeks): held at a nearly constant value | thickness of the cornea before instillation (0) (cornea; human, week 28 and week 52, measured at 9:00 before instillation): had a tendency to return to the value before starting administration | thickness of the cornea 2 hours after instillation (2) (cornea; human, week 28 and week 52, measured at 11:00): decreased

C[C@@H](N)c1ccc(C(=O)Nc2ccnc3[nH]ccc23)cc1 [Compound Y-33983, (R)—(+)—N-(1H-pyrrolo[2,3-b]pyridin-4-yl)-4-(1-aminoethyl)benzamide]
IC50 (Rho kinase [1]): 3.6 nM

O=S(=O)(c1cccc2cnccc12)N1CCCNCC1 [fasudil, 1-(5-isoquinolinesulfonyl)-1,4-homopiperazine]
adhesive property of a rabbit corneal endothelial cell [3]: enhanced

From patent US10034885B2, “Corneal thickness modulating agent” (KOWA COMPANY, LTD., priority 2014, dated 2018)
